Among the data in PubChem BioAssay (NCI) are GI50 and TGI values, retold here.

Several values for one entry are separate records, joined by “and”; a condition that tells them apart may be missing. Identical values can stand only once.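 Where inhibition never reached the appropriate level, the endpoint shown equals the highest concentration tested. Otherwise, values were interpolated linearly from a five-concentration, 48-hour dose response in 96-well plates. GI50: concentration for 50% inhibition of growth. TGI is the concentration that stops growth completely.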

Common to all, as to assay: NCI anticancer screen, dose series, 48 h
Experiment [1] has as its system SF-539 CNS.
For experiment [2], the system named is U251 CNS.
For experiment [3], the system named is NCI-H23 lung.
The test system of experiment [4] is CCRF-CEM leukemia.
Experiment [5] has as its system EKVX NSCLC.
In experiment [6] the test system is UO-31 renal.
Experiment [7] deals with 786-0 renal.
In experiment [8] the test system is SK-MEL-5 melanoma.
The test system of experiment [9] is SNB-75 CNS.
Experiment [10] relates to MDA-MB-435.

As to `CC(C)(C)c1cc(/C=N/NC(=O)c2ccccc2NC(=O)c2cccs2)c(O)c(C(C)(C)C)c1`, the GI50 in experiment [1] was 1930 nM; in [2] it was 700 nM; in experiment [3], 1620 nM; in [4], 336 nM; in [5] it was 365 nM; in experiment [6] it was 269 nM. In addition, the GI50 in [7] was 588 nM; in experiment [8], 700 nM; in experiment [9], 13100 nM; in [10], 2460 nM. In addition, the TGI in experiment [1] is 22100 nM; in [2], 7640 nM; in experiment [3], 25500 nM; in [4], 11700 nM; in experiment [5], greater than 100000 nM; in [6] it was 15700 nM. In addition, the TGI is 15700 nM in experiment [7], greater than 100000 nM in experiment [8], greater than 100000 nM in experiment [9] and 77700 nM in [10].
In the case of `Cc1cnc2oc3ccc(O)cc3c2c1-c1ccccc1`, the GI50 in [1] is 16100 nM; in experiment [2], 17900 nM; in experiment [3] it was 21600 nM; in experiment [4] it was greater than 100000 nM; in experiment [5], 13800 nM; in [6], 51600 nM. The GI50 in [7] is 36300 nM; in [8] it was 35800 nM; in [9], 21200 nM; in experiment [10], greater than 100000 nM. The TGI was 37500 nM in [1]; 51000 nM in experiment [2]; greater than 100000 nM in experiment [3]; greater than 100000 nM in experiment [4]; 65500 nM in [5]; greater than 100000 nM in experiment [6]. Moreover, the TGI in experiment [7], in experiment [8], in experiment [9] and in experiment [10] was greater than 100000 nM in each case.
Turning to `COc1cc(/C=C/c2cc(/C=C/c3ccc(O)c(OC)c3)n(C(=O)Nc3ccccc3Cl)n2)ccc1O`, the GI50 in experiment [1] is 352 nM; in [2], 384 nM; in experiment [3], 330 nM; in experiment [4], 216 nM; in experiment [5], 671 nM; in [6], 159 nM. Besides, the GI50 was 426 nM in experiment [7], 299 nM in experiment [8], 259 nM in [9] and 73.8 nM in experiment [10]. For the same compound, the TGI in experiment [1] was determined as 1580 nM; in experiment [2] it was 1510 nM; in experiment [3] it was 2460 nM; in experiment [4] it was 844 nM; in experiment [5], 3840 nM; in [6], 1170 nM. Besides, the TGI is 1570 nM in experiment [7], 1220 nM in experiment [8], 959 nM in [9] and 236 nM in experiment [10].
Consider `CCc1cnn2c(NCc3ccc[n+]([O-])c3)cc(N3CCCC[C@H]3CCO)nc12`, for which the GI50 is < 10 nM and 2.28 nM in [1]; < 10 nM and 3.68 nM in experiment [2]; < 10 nM and 4.16 nM in experiment [3]; < 10 nM and 3.31 nM in experiment [4]; < 10 nM and 9.02 nM in [5]; 20.1 nM and 22.8 nM in [6]. Moreover, the GI50 is 10.1 nM and 4.94 nM in experiment [7]; < 10 nM and 4.69 nM in [8]; < 10 nM and 1.74 nM in experiment [9]; < 10 nM and 3.31 nM in experiment [10]. Moreover, the TGI in experiment [1] was < 11.6 nM and 7.56 nM; in experiment [2], greater than 100000 nM; in [3] it was 17.4 nM and 21.4 nM; in experiment [5] it was 138 nM and 52.4 nM; in experiment [6], 69.2 nM; in experiment [7] it was greater than 100000 nM. Also, the TGI in [8] is 23.7 nM and 207 nM; in experiment [9], < 14.5 nM and 4.37 nM.
With `Clc1cc(Cl)c(OCCCCCCN2CCNCC2)c(Cl)c1`, the GI50 in experiment [1] is 2270 nM; in experiment [2], 2300 nM; in [3], 7310 nM; in [4] it was 1890 nM; in experiment [5], 9450 nM; in experiment [6], 2000 nM. In addition, the GI50 in experiment [7] is 1730 nM; in [8], 1660 nM; in experiment [9] it was 2640 nM; in [10], 2020 nM. The TGI was 5710 nM in experiment [1]; 6090 nM in [2]; 21800 nM in experiment [3]; 4310 nM in experiment [4]; 22300 nM in [5]; 5440 nM in experiment [6]. The TGI in [7] amounted to 3240 nM; in experiment [8] it was 3060 nM; in [9], 11700 nM; in [10], 4230 nM.
Take `Cn1cc(-c2nc(-c3c[nH]c4ncccc34)cs2)c2ccccc21`: the GI50 in [1] was 48700 nM; in [2] it was 24800 nM; in experiment [3], 4490 nM; in experiment [4], 24100 nM; in [5], 368 nM; in [6], greater than 100000 nM. Besides, the GI50 is 91700 nM in experiment [7], 595 nM in experiment [8], 18500 nM in experiment [9] and 3840 nM in experiment [10]. The TGI in experiment [1] is greater than 100000 nM; in [2], greater than 100000 nM; in experiment [3], greater than 100000 nM; in [4], greater than 100000 nM; in experiment [5] it was 61100 nM; in experiment [6], greater than 100000 nM. Further, the TGI is greater than 100000 nM in experiment [7], greater than 100000 nM in experiment [8], greater than 100000 nM in [9] and 30000 nM in [10].
In the case of `O=C1CC(c2ccccc2)Cc2nc3ccc(Br)cc3cc21` (stereo unspecified), the GI50 in experiment [1] is 226 nM; in experiment [2] it was 514 nM; in [3], 575 nM; in [4], 49.2 nM; in experiment [5] it was 780 nM; in experiment [6], 689 nM. The GI50 was 667 nM in experiment [7], 342 nM in [8], 187 nM in experiment [9] and 32.8 nM in experiment [10]. Besides, the TGI in [1] is 693 nM; in experiment [2], greater than 100000 nM; in experiment [3] it was greater than 100000 nM; in experiment [4], greater than 100000 nM; in experiment [5] it was greater than 100000 nM; in experiment [6], greater than 100000 nM. The TGI is greater than 100000 nM in experiment [7], 2220 nM in [8], greater than 90100 nM in [9] and 126 nM in [10].
`COC(=O)[C@]12CC[C@@H](C)[C@H](C)[C@@H]1C1=CC[C@@H]3[C@@]4(C)C[C@@H](OC(=O)/C=C/c5ccccc5)[C@H](O)[C@@](C)(CO)[C@@H]4[C@H](O)C[C@@]3(C)[C@]1(C)CC2`: the GI50 is 2080 nM in [1]; 1860 nM in experiment [2]; 2800 nM in experiment [3]; 2880 nM in [4]; 2940 nM in experiment [5]; 2560 nM in experiment [6]. For the same compound, the GI50 in experiment [7] is 1870 nM; in experiment [8], 1930 nM; in [9], 2080 nM; in experiment [10], 2440 nM. The TGI in experiment [1] turned out to be 4770 nM; in experiment [2] it was 4180 nM; in experiment [3], 10200 nM; in [4] it was 10400 nM; in [5], 11700 nM; in experiment [6], 11200 nM. For the same compound, the TGI in experiment [7] was determined as 3820 nM; in experiment [8], 4230 nM; in experiment [9], 12900 nM; in experiment [10] it was 6470 nM.
`O=C(c1ccc(C(F)(F)F)c(Cl)c1)N(Cc1ccc(Cl)cc1)c1ccc(-c2cc(C(F)(F)F)[nH]n2)c(O)c1`: the GI50 in experiment [1] was 994 nM; in experiment [2], 882 nM; in experiment [3], 910 nM; in experiment [4], 1110 nM; in experiment [5] it was 1300 nM; in experiment [6], 717 nM. The GI50 was 895 nM in experiment [7], 816 nM in experiment [8], 989 nM in experiment [9] and 1250 nM in [10]. The TGI was 2090 nM in [1]; 2250 nM in experiment [2]; 2450 nM in experiment [3]; 5330 nM in [4]; 4570 nM in experiment [5]; 1650 nM in [6]. Besides, the TGI in experiment [7] turned out to be 1700 nM; in [8], 1550 nM; in [9] it was 3240 nM; in [10], 3660 nM.
For the compound `COc1cc(/C=C2\CCC/C(=C\c3ccc(O)c(OC)c3)C2=O)ccc1O`, the TGI in experiment [1] is 4420 nM and 5730 nM; in experiment [2], 8890 nM and 4210 nM; in experiment [3] it was 24800 nM and 4630 nM; in experiment [4], 12200 nM and > 100000 nM; in experiment [5] it was 24300 nM and 10800 nM; in experiment [6], 4820 nM and 2830 nM. The TGI in experiment [7] was 4420 nM and 3070 nM; in experiment [8] it was 6820 nM and 3090 nM; in experiment [9] it was 12700 nM and 13700 nM. Moreover, the GI50 in experiment [2] was 1620 nM; in experiment [3], 1840 nM; in experiment [4], 366 nM; in experiment [5], 2100 nM; in experiment [6], 1170 nM; in experiment [7], 1670 nM. The GI50 is 1540 nM in experiment [8]; 3640 nM and 1990 nM in [9]; 1420 nM in [10].
With `COc1ccc2c3c1OC1C(OC)(OC)C=C[C@@]4(Br)[C@@H](C2)N(CC2CC2)CC[C@]314` (stereo partly specified), the TGI in [1], in [2], in experiment [3], in [4], in experiment [5] and in experiment [6] was greater than 100000 nM each time. Moreover, the TGI in experiment [7], in experiment [8], in experiment [9] and in experiment [10] was greater than 100000 nM throughout.
